Measurements from publication PMC10958470 (Virus Research, 2024).
Values joined by “and” are separate entries in the source; they are usually repeats but may differ in a detail not shown here. Identical values can stand only once. Counter-ions that a name gives are not always drawn. Like-named read-outs stand apart in the source and are kept apart here.

Legend:
[1] = molecular target: SARS-CoV-2 helicase (nsp13) (Severe acute respiratory syndrome coronavirus 2, UniProt P0DTD1); test: biochemical; assay type: biochemical
[2] = molecular target: SARS-CoV-2 nsp13 NTPase activity (Severe acute respiratory syndrome coronavirus 2, UniProt P0DTD1); test: biochemical; assay type: biochemical; settings: for inhibition at 20 µM: read-out: ATPase inhibition [%] 20 µM (HC Helicase ATPase inhibition [%])
[3] = molecular target: SARS-CoV-2 RdRp nsp12/7/8 complex (Severe acute respiratory syndrome coronavirus 2, UniProt P0DTD1); test: biochemical; assay type: biochemical; settings: for inhibition at 20 µM: read-out: RdRp Inhibition [%] 20 µM (PS Inhibition RdRp [%])
SARS-CoV-2 helicase = SARS-CoV-2 helicase (Severe acute respiratory syndrome coronavirus 2, UniProt P0DTD1); assay type: binding
RdRp complex = RdRp complex (Severe acute respiratory syndrome coronavirus 2, UniProt P0DTD1); assay type: binding, SARS-CoV-2
[4] = read-out: Helicase Inhibition [%] 20 µM (PS Inhibition Helicase [%])
[5] = read-out: DTT Helicase unwinding inhibition [%] 2.5 µM triplicates
[6] = read-out: Helicase unwinding inhibition 2.5 µM triplicates

Compound	Helicase Inhibition [%] 20 µM (PS Inhibition Helicase [%]) [1] [%]	RdRp Inhibition [%] 20 µM (PS Inhibition RdRp [%]) [3] [%]	PicoGreen effect [%] 20 µM (annealed dsDNA substrate) [%]	inhibition at 20 µM [1, 4] [%]	IC50 ([3]; RdRp IC50 [µM]) [µM]	inhibition at 20 µM [3] [%]	other results
OC[C@H]1O[C@H]([S-])[C@H](O)[C@@H](O)[C@@H]1O.[Au+] [aurothioglucose]	100.73	4.77	13.9				DTT nsp13 inhibition [%] 20 µM (DTT HC Helicase inhibition [%]) [1]: 98.65%; IC50 ([1]; read-out: DTT Helicase IC50): 10.6 µM; IC50 ([1]; read-out: Helicase IC50): 1.95 µM; ATPase inhibition [%] 20 µM (HC Helicase ATPase inhibition [%]) [2]: 106.07%
CN(C)[C@@H]1C(O)=C(C(N)=O)C(=O)[C@@]2(O)C(O)=C3C(=O)c4c(O)cccc4[C@@](C)(O)[C@H]3[C@H](O)[C@@H]12 [oxytetracycline]			19.99	16.4	16.1	100	
C=CCn1c(CSc2ccccc2[N+](=O)[O-])n[nH]c1=S [SSYA10-001]							inhibition of helicase unwinding activity in presence of DTT [1]: effectively eliminated the inhibition; inhibition of helicase NTPase activity, absence of DTT [2]: inhibits NTPase activity only in the absence of DTT
CO[C@H](C(=O)[C@@H](O)[C@@H](C)O)[C@@H]1Cc2cc3cc(O[C@H]4C[C@@H](O[C@H]5C[C@@H](O)[C@H](O)[C@@H](C)O5)[C@H](O)[C@@H](C)O4)c(C)c(O)c3c(O)c2C(=O)[C@H]1O[C@H]1C[C@@H](O[C@H]2C[C@@H](O[C@H]3C[C@](C)(O)[C@H](O)[C@@H](C)O3)[C@@H](O)[C@@H](C)O2)[C@H](O)[C@@H](C)O1 [plicamycin (mithramycin), plicamycin]			−3.94	95.8		6.39	DTT Helicase unwinding inhibition [%] 2.5 µM triplicates [1]: 71.99%; DTT nsp13 inhibition [%] 20 µM (DTT HC Helicase inhibition [%]) [1]: 98.09%; mode of helicase inhibition towards dsDNA substrate [1]: competitive mode of inhibition towards the dsDNA substrate; IC50 ([1]; DTT Helicase IC50 [µM]): 1.35 µM; IC50 ([1]; Helicase IC50 [µM]): 3.57 µM; inhibition at 2.5 µM [1, 5]: 72%; inhibition at 2.5 µM [1, 6]: 39%; DTT Helicase ATPase activity PLUS DNA substrate 2 µM [2]: 133.03; DTT Helicase ATPase activity [%] 2 µM [2]: 114.66%; Helicase ATPase activity PLUS DNA substrate 2 µM [2]: 159.86; Helicase ATPase activity [%] 2 µM [2]: 125.71%; remaining NTPase activity [2]: 114.6%; inhibition at 20 µM [2]: 19.8%; Helicase Tm °C 20 µM (SARS-CoV-2 helicase): 38.3 °C; Helicase Tm °C 100 µM (SARS-CoV-2 helicase): 38.9 °C; effect on helicase Tm (SARS-CoV-2 helicase): did not result in a Tm change
OCCOCCN1CCN(C(c2ccccc2)c2ccc(Cl)cc2)CC1 (centres unmarked) [hydroxyzine pamoate]			1.28	4.28	16.5	76.8	
O=C(N/N=C/c1ccc([N+](=O)[O-])o1)c1cc([N+](=O)[O-])cc([N+](=O)[O-])c1O [nifursol]			8.54	5.5	11.5	100	
O=C(O)c1cc(/N=N/c2ccc(O)c(C(=O)O)c2)ccc1O [olsalazine sodium]			12.75		14.4	84.7	
CCOc1ccc2nc3cc(N)ccc3c(N)c2c1 [ethacridine lactate]			32.09	35.5	9.96	80.3	
Cc1cc(N)c2ccccc2[n+]1CCCCCCCCCC[n+]1c(C)cc(N)c2ccccc21 [dequalinium chloride]			−4.04	25.6	4.07	94.6	
O=c1c(O)c(-c2ccc(O)c(O)c2)oc2cc(O)ccc12 [fisetin (fustel), fisetin]			4.99	39.3	2.17	95.8	RdRp Tm °C 20 µM (RdRp complex): 42.7 °C; RdRp Tm °C 100 µM (RdRp complex): 43.5 °C
O=C(O)c1ccccc1Nc1ccc(CCc2ccc(Cl)c(Cl)c2)cc1 [PD-118057]	7.76	81.81	11.19				IC50 ([3]; read-out: RdRp IC50): > 20 µM
O=C(O)c1c(Cl)c(Cl)c(Cl)c(Cl)c1-c1c2cc(I)c(=O)c(I)c-2oc2c(I)c(O)c(I)cc12 [rose bengal sodium salt]			30.91	21.5	> 20	98	
O=C(Nc1ccc2c(O)cc(S(=O)(=O)[O-])cc2c1)Nc1ccc2c(O)cc(S(=O)(=O)[O-])cc2c1.[Na+].[Na+] [disodium 7,7′-(carbonyldiimino) bis(4-hydroxy-2-naphthalenesulfonate)]	84.75	90.5					DTT Helicase unwinding inhibition [%] 2.5 µM triplicates [1]: 6.27%; DTT nsp13 inhibition [%] 20 µM (DTT HC Helicase inhibition [%]) [1]: 65.72%; IC50 ([1]; read-out: DTT Helicase IC50): > 20 µM; DTT Helicase ATPase activity PLUS DNA substrate 2 µM [2]: 103.05; DTT Helicase ATPase activity [%] 2 µM [2]: 103.17%; IC50 ([3]; read-out: RdRp IC50): > 20 µM
N#C/C(=C\c1ccc(O)c(O)c1)C(=O)OCCc1cccs1 [2-TEDC]	8.66	97.86	7.15				IC50 ([3]; read-out: RdRp IC50): 7.99 µM
O=C(c1cc(O)c(O)c(O)c1)c1ccc(O)c(O)c1O [exifone]			8.87	100		36.6	DTT Helicase unwinding inhibition [%] 2.5 µM triplicates [1]: 99.91%; inhibition at 2.5 µM [1, 5]: 99.9%; inhibition at 2.5 µM [1, 6]: 49.9%; DTT Helicase ATPase activity PLUS DNA substrate 2 µM [2]: 2.64; DTT Helicase ATPase activity [%] 2 µM [2]: 14.53%; Helicase ATPase activity PLUS DNA substrate 2 µM [2]: 4.96; Helicase ATPase activity [%] 2 µM [2]: 11.33%; gain of ATPase activity reduction in the presence of dsDNA substrate [2]: 10–15%; remaining NTPase activity [2]: 14.5%; inhibition at 20 µM [2]: 104%; Helicase Tm °C 20 µM (SARS-CoV-2 helicase): 38.3 °C; Helicase Tm °C 100 µM (SARS-CoV-2 helicase): 37.8 °C; effect on helicase Tm (SARS-CoV-2 helicase): decrease in Tm
O=c1c(O)c(-c2ccc(O)cc2O)oc2cc(O)cc(O)c12 [morin hydrate (aurantica), morin hydrate]	39.33	95.67	20.36				IC50 ([3]; read-out: RdRp IC50): 5.96 µM
CC1(C)C(/C=C/C=C/C=C/C=C2\N(CCCCS(=O)(=O)O)c3ccc4ccccc4c3C2(C)C)=[N+](CCCCS(=O)(=O)[O-])c2ccc3ccccc3c21 [cardiogreen]		4.44	26.52				DTT Helicase unwinding inhibition [%] 2.5 µM triplicates [1]: 65% and 65.01%; DTT nsp13 inhibition [%] 20 µM (DTT HC Helicase inhibition [%]) [1]: 94.06%; Helicase unwinding inhibition 2.5 µM triplicates [1]: 66.59; IC50 ([1]; read-out: DTT Helicase IC50): 3.85 µM; IC50 ([1]; read-out: Helicase IC50): 3.57 µM; ATPase inhibition [%] 20 µM (HC Helicase ATPase inhibition [%]) [2]: 97.11%; DTT Helicase ATPase activity PLUS DNA substrate 2 µM [2]: 51.49; DTT Helicase ATPase activity [%] 2 µM [2]: 60.43%; Helicase ATPase activity PLUS DNA substrate 2 µM [2]: 32.88; Helicase ATPase activity [%] 2 µM [2]: 45.65%; gain of ATPase activity reduction in the presence of dsDNA substrate [2]: 10–15%; remaining NTPase activity [2]: 60.4%
O=C(O[C@@H]1Cc2c(O)cc(O)cc2O[C@@H]1c1cc(O)c(O)c(O)c1)c1cc(O)c(O)c(O)c1 [(−)-epigallocatechin gallate]		85.49		96.4			DTT nsp13 inhibition [%] 20 µM (DTT HC Helicase inhibition [%]) [1]: 78.10%; inhibition at 2.5 µM [1, 5]: 73.5%; DTT Helicase ATPase activity PLUS DNA substrate 2 µM [2]: 31.66; DTT Helicase ATPase activity [%] 2 µM [2]: 43.42%; gain of ATPase activity reduction in the presence of dsDNA substrate [2]: 10–15%; Helicase Tm °C 20 µM (SARS-CoV-2 helicase): 38.4 °C; Helicase Tm °C 100 µM (SARS-CoV-2 helicase): 39.6 °C; effect on helicase Tm (SARS-CoV-2 helicase): did not result in a Tm change
tyrphostin-AG-835	7.56	84.15	11.5				IC50 ([3]; read-out: RdRp IC50): 9.64 µM
C=C1c2cccc(O)c2C(=O)C2=C(O)[C@]3(O)C(=O)C(C(N)=O)=C(O)[C@@H](N(C)C)[C@@H]3[C@@H](O)[C@H]12 [methacycline hydrochloride]			25.54	25.2	6.43	120	
Cc1c(Cl)c(C)[n+]([O-])c(Cl)c1-c1noc(-c2cc(O)c(O)c([N+](=O)[O-])c2)n1 [opicapone]			6.86			17.9	DTT nsp13 inhibition [%] 20 µM (DTT HC Helicase inhibition [%]) [1]: 51.40%; IC50 ([1]; DTT Helicase IC50 [µM]): 25.5 µM; IC50 ([1]; Helicase IC50 [µM]): 1.1 µM; inhibition at 20 µM ([1]; read-out: DTT nsp13 inhibition [%] 20 µM (DTT HC Helicase inhibition [%])): > 50%; inhibition at 20 µM [2]: 96.9%
Nc1ncnc2c1ncn2[C@@H]1O[C@H](COP(=O)(O)OP(=O)(O)OP(=O)(O)O)[C@@H](O)[C@H]1O [ATP, adenosine triphosphate]							Kmapp (mM) ATP, - DTT [1]: 1.9 mM; apparent Kmapp (RdRp substrates) [3]: 102.7 µM
CC(C)c1ccccc1Cc1cc(C(=O)Nc2ccc(S(=O)(=O)c3ccccc3C(C)(C)C)cc2)c(O)c(O)c1O [TW-37]	3.76	89.4	3.9				IC50 ([3]; read-out: RdRp IC50): 13.7 µM
FPA-124		7.70	−3.30				DTT nsp13 inhibition [%] 20 µM (DTT HC Helicase inhibition [%]) [1]: 64.76%
O=C1OC2(c3cc(I)c(O)c(I)c3Oc3c2cc(I)c(O)c3I)c2c(Cl)c(Cl)c(Cl)c(Cl)c21 [rose-bengal-lactone]	−2.61	99.44	35.69				
COc1cc(NC(C)CCCN)c2ncccc2c1 (centres unmarked) [primaquine phosphate]			1.58	7.17	6.56	102	
